Measured values from ChEMBL document CHEMBL1811841 (Bioorg Med Chem, 2011).

How the values were obtained:
[1] = target: T1, Melatonin receptor type 1A (Homo sapiens, UniProt P48039); test: Intrinsic activity at human cloned MT1 receptor expressed in mouse NIH-3T3 cells assessed as stimulation of [35S]GTPgammaS binding relative to melatonin; type: functional, cell-based; conditions: NIH3T3
[2] = target: T2, Melatonin receptor type 1B (Homo sapiens) (UniProt P49286); test: Intrinsic activity at human cloned MT2 receptor expressed in mouse NIH-3T3 cells assessed as stimulation of [35S]GTPgammaS binding relative to melatonin; type: functional, cell-based; conditions: NIH3T3
T2 sequence (whole entry): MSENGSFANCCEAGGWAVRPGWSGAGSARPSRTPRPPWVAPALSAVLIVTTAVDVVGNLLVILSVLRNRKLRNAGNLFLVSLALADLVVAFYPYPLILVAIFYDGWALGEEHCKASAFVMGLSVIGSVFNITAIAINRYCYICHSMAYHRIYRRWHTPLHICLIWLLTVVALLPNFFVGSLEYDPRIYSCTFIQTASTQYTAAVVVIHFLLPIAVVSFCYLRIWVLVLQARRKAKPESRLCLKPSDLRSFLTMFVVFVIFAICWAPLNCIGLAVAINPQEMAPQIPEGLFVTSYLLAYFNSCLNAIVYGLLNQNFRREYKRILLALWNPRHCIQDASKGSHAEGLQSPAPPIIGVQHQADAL

[3] = target: T1, Melatonin receptor type 1A; test: Displacement of 2-[125I]iodomelatonin from human cloned MT1 receptor expressed in mouse NIH-3T3 cell membrane; type: cell membranes, NIH3T3
Homo sapiens = species: Homo sapiens; test: Selectivity index, ratio of Ki for human cloned MT2 receptor to Ki for human cloned MT1 receptor
[4] = target: T3, Melatonin receptor type 1B (Homo sapiens, UniProt P49286); test: Displacement of 2-[125I]iodomelatonin from human cloned MT2 receptor expressed in mouse NIH-3T3 cell membrane; type: cell membranes, NIH3T3
T3 sequence (P49286 whole entry): T2 sequence (whole entry)

T1 sequence (P48039 whole entry): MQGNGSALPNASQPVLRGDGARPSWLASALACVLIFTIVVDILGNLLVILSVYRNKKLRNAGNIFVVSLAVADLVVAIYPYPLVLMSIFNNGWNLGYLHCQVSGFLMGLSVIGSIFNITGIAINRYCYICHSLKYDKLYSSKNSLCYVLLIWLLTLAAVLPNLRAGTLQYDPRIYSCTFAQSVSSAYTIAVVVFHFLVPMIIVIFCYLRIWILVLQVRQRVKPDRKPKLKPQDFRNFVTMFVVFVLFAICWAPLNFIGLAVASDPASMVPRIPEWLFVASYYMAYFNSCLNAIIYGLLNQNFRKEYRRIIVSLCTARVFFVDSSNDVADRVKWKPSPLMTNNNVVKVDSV

Intrinsic activity [1] | Intrinsic activity [2] | Ki [3] | Ratio Ki (Homo sapiens) | Ki [4] | Compound
0.47 | 0.38 | 20 nM | 4.7 | 93.3 nM | CC(=O)NCCN(C)c1cccc(OCCCCCCCCOc2cccc(N(C)CCNC(C)=O)c2)c1
0.44 | 0.33 | 3.39 nM | 54 | 182 nM | CC(=O)NCCN(C)c1cccc(OCCCCCCOc2cccc(N(C)CCNC(C)=O)c2)c1
0.26 | 0.33 | 20.4 nM | 102 | 2090 nM | CC(=O)NCCN(C)c1cccc(OCCCOc2cccc(N(C)CCNC(C)=O)c2)c1
0.21 | 0.18 | 42.7 nM | 23 | 1000 nM | CC(=O)NCCN(C)c1cccc(OCCCCOc2cccc(N(C)CCNC(C)=O)c2)c1
0.42 | 0.57 | 3.98 nM | 10 | 40.7 nM | CC(=O)NCCN(C)c1cccc(OCCCCCCCCCCOc2cccc(N(C)CCNC(C)=O)c2)c1
0.46 | 0.64 | 57.5 nM | 14 | 813 nM | CC(=O)NCCN(C)c1cccc(OCCCCCOc2cccc(N(C)CCNC(C)=O)c2)c1

The next lines start with the compound.

Compound | Intrinsic activity [1] | Intrinsic activity [2] | Ki [3] | Ratio Ki (Homo sapiens) | Ki [4]
COc1cccc(N(CCNC(C)=O)C(=O)CCCCC(=O)N(CCNC(C)=O)c2cccc(OC)c2)c1 | 0.94 | 0.91 | 288 nM | 0.85 | 245 nM
COc1cccc(N(CCCCCCN(CCNC(C)=O)c2cccc(OC)c2)CCNC(C)=O)c1 | -0.04 | -0.09 | 741 nM | 0.05 | 36.3 nM
CC(=O)NCCN(C)c1cccc(OCCCCCCOc2ccccc2)c1 | 0.49 | 0.54 | 14.5 nM | 11 | 158 nM
COc1cccc(N(CCCCCCCCCCN(CCNC(C)=O)c2cccc(OC)c2)CCNC(C)=O)c1 | 0.12 | 0.37 | 380 nM | 0.8 | 309 nM
